According to patent US6420352B1, “Hair loss prevention” (priority 2000, dated 2002):
Like-named read-outs stand apart in the source and are kept apart here.

Legend:
scalp hair follicles = conditions: in vivo; cited from earlier work
hair loss = test: Topical use for hair loss prevention, effectiveness in patients; type: in vivo, human; conditions: same amount of minoxidil
Description: […]. […] […]. After about thirty months of use, about half of the new hair growth falls out. Thus, while the user has somewhat more hair than originally, the user has less hair than […].
Minoxidil without a penetration enhancer (as available in ROGAINE™ topical minoxidil U.S.P.) produces a different kind of hair than does minoxidil used with a penetration enhancer.
Further, it is known in the art that minoxidil users experience a sudden drop in hair thickness after about thirty months of usage. I thus have sought the time at which my compounds have a sudden drop in effectiveness. […] That this function is abnormal is confirmed by its drop in effectiveness after thirty months; such a drop in efficacy indicates a “tolerance” acquired against the intervention, rather than the maintenance of a permanent, healthy state.
Using the specific formulations disclosed here, I have observed decreases in hair loss, and a consequent statistically significant increase in the amount of healthy mature hair, after 4.0-4.5 months on the frontal scalp. On the crown and back of the head, by contrast, I have observed statistically significant results after 4.5-5.0 months. The frontal scalp may react faster because it enjoys greater vascularization and blood flow than the other parts of the scalp.
I have found several surprising things about testosterone blockers. […]

[1] = cited from earlier work
age related hair loss = conditions: stump-tail macaque monkeys; cited from earlier work

**Q.** For `CC(C)(C)NC(=O)[C@H]1CC[C@H]2[C@@H]3CC[C@H]4NC(=O)C=C[C@]4(C)[C@H]3CC[C@]12C` [finasteride], which “effect on scalp hair follicles / balding process” value (scalp hair follicles) is on record?
**A.** Its value is “miniaturizes scalp hair follicles, reversing the balding process”.

**Q.** Which “share of patients on whom the preparation is effective” value (hair loss) does the source give for `Nc1cc(N2CCCCC2)nc(N)[n+]1[O-]` [minoxidil, 6-(1-piperidinyl)-2,4-pyrimidinediamaine 3-oxide] here?
**A.** Its value is 8%.

**Q.** Which “solubility, in words” value ([1]; in alcohol, acetone, dioxane, and concentrated sulfuric acid) does the source give for `CC(=O)[C@H]1CC[C@H]2[C@@H]3CCC4=CC(=O)CC[C@]4(C)[C@H]3CC[C@]12C` [Progesterone, pregn-4-ene-3, 20-dione] here?
**A.** Its value is “soluble”.

**Q.** What about the “solubility, in words” value ([1]; in vegetable oils) of the same compound?
**A.** The value was “sparingly soluble”.

**Q.** What about the “solubility, in words” value ([1]; in water) of the same compound?
**A.** Its value is “insoluble”.

**Q.** With `CN(C)C(=O)C1CCC2C3CCC4N(C)C(=O)CCC4(C)C3CCC12C` (stereo not drawn) [17b-N,N,- dimethylcarbamoyl-4-methyl-4-aza-5α-androstan-3-one] as the compound, how does the “age related hair loss versus untreated monkeys” value (age related hair loss) read?
**A.** Its value is “significantly less age related hair loss”.

**Q.** Which “solubility, in words” value ([1]; in lipid and relatively non-polar solvents) does the source give for `CCC(CCCCC1CCC2CC(=O)CC12)OC` (stereo not shown) [Cioteronel, hexahydro-4-(5-methoxyheptyl)-2(1H)-pentalenone] here?
**A.** The value was “soluble”.
